Experimental data as given in patent publication US9757408B2 (Hayashibara Co., Ltd., priority 2010, dated 2017).
Marks after values point to notes of the source that are not given here.

Key:
[1] = test system: mice with colitis induced by dextran sulfate sodium; test: Dextran sulfate sodium colitis mice: diarrhea/hematochezia scores, DAI, haptoglobin (Experiment 13); format: in vivo, C57BL/6 mice; conditions: dextran sulfate sodium intake; for Content of haptoglobin: blood on 11th day
Protocol: Dextran sulfate sodium (commercialized by MP Biomedicals, CA, USA, molecular weight of 36,000 to 50,000) was dissolved in tap water, and all the mice of these five groups consisting of eight heads each were allowed to freely take the solution for five days (Experiment groups 2 to 5). […] The eight mice of the remaining one group were administered through a gastric tube with PBS once a day at a dose of 0.2 mL/head over 11 days from the day of initiating the administration of dextran sulfate sodium (Experiment group 2). The five mice of one group, which had not been administered with dextran sulfate sodium, were bred for 11 days on the normal feed while allowing them to take tap water freely (Experiment group 1).
The mice were weighed and their degree of diarrhea and hematochezia were macroscopically observed every day over 11 days from the day of initiating the intake of dextran sulfate sodium. The body weight reduction percentage (%) was determined by dividing the body weight of a mouse at 11th day after initiating the intake of dextran sulfate sodium by the body weight of the mouse at the day of initiating the intake, and multiplying the value by 100, and subtracting the resulting value from 100. The scores of diarrhea and hematochezia and the body weight reduction percentage (%) in each mouse were scored according to the criteria as shown in Table 13. For each group, the average of the total scores of diarrhea and hematochezia on days ranging from the day (intake day 0) of initiating the intake of dextran sulfate sodium to 11th day therefrom (intake day 10) are determined and shown in Table 14. The total scores of diarrhea, hematochezia, and body weight reduction percentage for each mouse at 11th day (intake day 10) after initiating the intake of dextran sulfate sodium are calculated for disease activity index (DAI) used as an index for colitis, averaged for each group, and shown in Table 14. On 11th day after initiating the intake of dextran sulfate sodium, each mouse was collected blood, followed by assaying haptoglobin or an acute phase protein, as an index for inflammatory, on an ELISA kit commercialized by Life Diagnostics USA, and averaging the data for each group. The results are in Table 14 in parallel. Since one mouse in Experiment group 2 administered with only dextran sulfate sodium was dead at 11th day after initiating the intake of dextran sulfate sodium, the results of Experiment group 2 at 11th day (intake day 10) after initiating the intake of dextran sulfate sodium represent the average of seven mice.

[2] = test system: IL-4 production of spleen cells; test: IL-4 production of spleen cells stimulated with anti-CD3 antibody, from gel-treated mice (Experiment 16); format: in vivo, NC/Nga mice; conditions: for production level of IL-4 of spleen cells stimulated with the anti-CD3 antibody: compared to mice applied with gel prepared by adding refined water (Experiment group 1); for Content of IL-4: supernatant of spleen cells stimulated with anti-CD3 antibody
Protocol: On Friday of the 6th week of the induction (46th day after initiating the application), all the mice were sacrificed, followed by isolating their spleens and collecting spleen cells in usual manner. […] To each well 2 μg/mL of “Purified Mouse CD3ε Monoclonal Antibody”, a product name of an anti-CD3 antibody, commercialized by Cosmo Bio Co., Ltd., Tokyo, Japan, was added, and the cells were incubated at 37° C. for three days in a 5% v/v CO2 incubator, followed by assaying the levels of cytokines in each supernatant thereof.
The results are in Table 19 in parallel.

NHEK cells [3] = test: Cytotoxicity (released LDH) of NHEK cells irradiated with ultraviolet B (Experiment 17); format: cell-based, human; conditions: for LDH Activity: NHEK cells, stimulation by ultraviolet rays
[4] = test system: TNF-α production from NHEK cells; test: TNF-α production from NHEK cells irradiated with ultraviolet B (Experiment 17); format: cell-based, human; conditions: for TNF-α: NHEK cells, stimulation by ultraviolet rays; for production of TNF-α from NHEK cells induced by ultraviolet rays: UVB 40 mJ/cm^2, supernatant at six hours
Protocol: (§1) “CELLMATRIX TYPE IV”, a product name of collagen for tissue culture commercialized by Nitta Gelatin Inc., Osaka, Japan, which had been diluted with PBS(K-) by 10 times, was previously placed in “FALCON 35-3001”, a product name of 35 mm petri dish commercialized by Becton Dickinson and Company, NJ, USA, in an amount of 1 mL/plate, and then allowed to stand at ambient temperature for 10 min, followed by removing an excessive amount of CELLMATRIX, drying the petri dish in air, and washing it thrice with PBS(K-). […] The cells were cultured at 37° C. in a 5% v/v CO2 incubator. On the 2nd and 4th days after the cell inoculation, the medium was replaced with EpiLife medium free of EDGS (1 mL/plate). On the 5th day after the cell inoculation, the supernatant was removed, and the petri dish was washed twice by adding 1 mL/petri dish of Hanks' balanced salt solution (called “HBSS (−) buffer”, hereinafter). Further, 2 mL/petri dish of HBSS (−) buffer was added to the petri dish which was then placed in the position 15 cm apart from an ultraviolet ray light source and irradiated with 40 mJ/cm^2 of ultraviolet B radiation. […] As an ultraviolet ray light source, “NS-8F”, a light source for actual use commercialized by Sanwa Medical Co., Ltd., Okayama, Japan, equipped with an ultraviolet B radiation lamp was used, and the radiation dose was measured on “UVR-305/365D (II)”, an ultraviolet ray meter commercialized by Topcon Corporation, Tokyo, Japan. TNF-α was assayed by the same method as in Experiment 2. The remaining other cytokines were assayed with an IL-1α assay kit, commercialized by R & D Systems Inc., MN, USA, and an IL-8 assay kit commercialized by BioLegend, CA, USA.

[5] = test system: IL-8 production from NHEK cells; test: IL-8 production from NHEK cells irradiated with ultraviolet B (Experiment 17); format: cell-based, human; conditions: for IL-8: NHEK cells, stimulation by ultraviolet rays; for production of IL-8 from NHEK cells induced by ultraviolet rays: UVB 40 mJ/cm^2, supernatant at six hours
Protocol: as §1

[6] = test system: TNF-α production from mouse intraperitoneal macrophages; test: IC50 for TNF-α production from mouse macrophages, LPS + IFN-γ, nucleic acid derivatives (Experiment 19); format: cell-based; conditions: for IC50: Mus musculus, Macrophage, 20 h, read-out: IC50 Concentration TNF-α
Description: (§2) After completion of the culture, the supernatant in each well was collected and assayed for cytokines and prostaglandin E2 (called “PGE2”, hereinafter) with ELISA.

[7] = test system: IL-12 production from mouse intraperitoneal macrophages; test: IC50 for IL-12 production from mouse macrophages, LPS + IFN-γ (Experiment 19); format: cell-based; conditions: for IC50: Mus musculus, Macrophage, 20 h, read-out: IC50 Concentration IL-12
Description: as §2

NHEK cells [8] = test: Proliferation of NHEK cells irradiated with ultraviolet rays, fluorescent intensity (Experiment 17); format: cell-based, human; conditions: stimulation by ultraviolet rays
Protocol: as §1

[9] = picryl chloride-sensitized mice applied with gel
[10] = mouse intraperitoneal macrophages stimulated with LPS and IFN-γ

For `Nc1ncnc2c1ncn2[C@@H]1O[C@H](CO)[C@@H](O)[C@H]1O` [AN, adenosine], the Content of haptoglobin ([1]; 94 mg/kg orally once a day) was 4.0 mg/mL, the “Total scores of diarrhea and hematochezia, day 0” value (from here on “Total scores … day 0”) ([1]; 94 mg/kg orally once a day, day 0) was 0 and the “Total scores of diarrhea and hematochezia, day 1” value ([1]; 94 mg/kg orally once a day) was 0. The “Total scores of diarrhea and hematochezia, day 2” value (“Total scores … day 2” for short) ([1]; 94 mg/kg orally once a day) was 0, the “Total scores of diarrhea and hematochezia, day 3” value (“Total scores … day 3” for short) ([1]; 94 mg/kg orally once a day) was 0.3 and the “Total scores of diarrhea and hematochezia, day 4” value (“Total scores … day 4” for short) ([1]; 94 mg/kg orally once a day) was 1.0. The “Total scores of diarrhea and hematochezia, day 5” value (“Total scores … day 5” for short) ([1]; 94 mg/kg orally once a day) was 1.4, the “Total scores of diarrhea and hematochezia, day 6” value (“Total scores … day 6” for short) ([1]; 94 mg/kg orally once a day) was 1.3 and the “Total scores of diarrhea and hematochezia, day 7” value (“Total scores … day 7” for short) ([1]; 94 mg/kg orally once a day) was 1.4. The “Total scores of diarrhea and hematochezia, day 8” value (“Total scores … day 8” for short) ([1]; 94 mg/kg orally once a day) was 1.4, the “Total scores of diarrhea and hematochezia, day 9” value (“Total scores … day 9” for short) ([1]; 94 mg/kg orally once a day) was 1.4 and the “DAI (total scores of diarrhea, hematochezia, and body weight reduction percentage), day 10” value ([1]; 94 mg/kg orally once a day) was 4.6. The “Total scores of diarrhea and hematochezia, day 10” value ([1]; 94 mg/kg orally once a day) was 1.6, the “production level of IL-4 of spleen cells stimulated with the anti-CD3 antibody” value [2] was “showed no difference” and the “Content of IL-4” value [2, 9] was 9.8 ng/mL. The “LDH Activity” value (NHEK cells [3]; 1 μM) was 0.35 absorbance, the “LDH Activity” value (NHEK cells [3]; 5 μM) was 0.36 absorbance and the “LDH Activity” value (NHEK cells [3]; 10 μM) was 0.35 absorbance. For the same compound, the TNF-α ([4]; 1 μM) was 144 pg/mL, the TNF-α ([4]; 5 μM) was 138 pg/mL and the TNF-α ([4]; 10 μM) was 138 pg/mL. The “production of TNF-α from NHEK cells induced by ultraviolet rays” value [4] was “did not influence”, the IL-8 ([5]; 1 μM) was 177 pg/mL and the IL-8 ([5]; 5 μM) was 172 pg/mL. The IL-8 ([5]; 10 μM) was 175 pg/mL, the “production of IL-8 from NHEK cells induced by ultraviolet rays” value [5] was “did not influence” and the IC50 [6] was 17.4 µM. The “inhibitory action on the production of inflammatory cytokines (in words)” value [6, 10] was “only a weak inhibitory action”, the IC50 [7] was 14 µM and the Proliferation (NHEK cells [8]; 1 μM) was 5701 Fluorescent intensity. For the same compound, the Proliferation (NHEK cells [8]; 5 μM) was 5683 Fluorescent intensity and the Proliferation (NHEK cells [8]; 10 μM) was 5578 Fluorescent intensity.

`Nc1c2ncn([C@@H]3O[C@H](CO)[C@@H](O)[C@H]3O)c2nc[n+]1[O-]` [ANO, adenosine N1-oxide] was tested, and the Content of haptoglobin ([1]; 33 mg/kg orally once a day) was 3.7 mg/mL, the “Total scores … day 0” value ([1]; 33 mg/kg orally once a day, day 0 after initiating the intake) was 0 and the “Total scores of diarrhea and hematochezia, day 1” value ([1]; 33 mg/kg orally once a day) was 0. For the same compound, the “Total scores … day 2” value ([1]; 33 mg/kg orally once a day) was 0, the “Total scores … day 3” value ([1]; 33 mg/kg orally once a day) was 0 and the “Total scores … day 4” value ([1]; 33 mg/kg orally once a day) was 0.3. For the same compound, the “Total scores … day 5” value ([1]; 33 mg/kg orally once a day) was 0.3, the “Total scores … day 6” value ([1]; 33 mg/kg orally once a day) was 0.5 and the “Total scores … day 7” value ([1]; 33 mg/kg orally once a day) was 0.6. For the same compound, the “Total scores … day 8” value ([1]; 33 mg/kg orally once a day) was 0.9, the “Total scores … day 9” value ([1]; 33 mg/kg orally once a day) was 0.8 and the “DAI (total scores of diarrhea, hematochezia, and body weight reduction percentage), day 10” value ([1]; 33 mg/kg orally once a day) was 3.8*. For the same compound, the “Total scores of diarrhea and hematochezia, day 10” value ([1]; 33 mg/kg orally once a day) was 0.7, the Content of haptoglobin ([1]; 100 mg/kg orally once a day) was 2.9* mg/mL and the “Total scores … day 0” value ([1]; 100 mg/kg orally once a day, day 0) was 0. For the same compound, the “Total scores of diarrhea and hematochezia, day 1” value ([1]; 100 mg/kg orally once a day) was 0, the “Total scores … day 2” value ([1]; 100 mg/kg orally once a day) was 0 and the “Total scores … day 3” value ([1]; 100 mg/kg orally once a day) was 0.3. The “Total scores … day 4” value ([1]; 100 mg/kg orally once a day) was 0.4, the “Total scores … day 5” value ([1]; 100 mg/kg orally once a day) was 0.4 and the “Total scores … day 6” value ([1]; 100 mg/kg orally once a day) was 0.5. The “Total scores … day 7” value ([1]; 100 mg/kg orally once a day) was 0.6, the “Total scores … day 8” value ([1]; 100 mg/kg orally once a day) was 0.6 and the “Total scores … day 9” value ([1]; 100 mg/kg orally once a day) was 0.7. For the same compound, the “DAI (total scores of diarrhea, hematochezia, and body weight reduction percentage), day 10” value ([1]; 100 mg/kg orally once a day) was 3.4**, the “Total scores of diarrhea and hematochezia, day 10” value ([1]; 100 mg/kg orally once a day) was 0.6 and the “production level of IL-4 of spleen cells stimulated with the anti-CD3 antibody” value [2] was “significantly lower”. For the same compound, the “production ratio of IL-4/IFN-γ of spleen cells stimulated with the anti-CD3 antibody” value ([2]; spleen cells of gel-treated mice) was “close to that of the mice of the normal group”, the “Ratio of IL-4/IFN-γ” value ([2]; spleen cells stimulated with anti-CD3 antibody, picryl chloride-sensitized mice applied with gel) was 0.32 and the “Content of IL-4” value [2, 9] was 2.8* ng/mL. The “LDH Activity” value (NHEK cells [3]; 1 μM) was 0.32 absorbance, the “LDH Activity” value (NHEK cells [3]; 5 μM) was 0.23 absorbance and the “LDH Activity” value (NHEK cells [3]; 10 μM) was 0.14 absorbance. The “LDH released from NHEK cells by the stimulation of ultraviolet rays” value (NHEK cells [3]; UVB 40 mJ/cm^2, supernatant at four hours) was “inhibited LDH released”, the TNF-α ([4]; 1 μM) was 119 pg/mL and the TNF-α ([4]; 5 μM) was 76 pg/mL. The TNF-α ([4]; 10 μM) was 76 pg/mL, the “production of TNF-α from NHEK cells induced by ultraviolet rays” value [4] was “inhibited” and the IL-8 ([5]; 1 μM) was 107 pg/mL. The IL-8 ([5]; 5 μM) was 89 pg/mL, the IL-8 ([5]; 10 μM) was 51 pg/mL and the “production of IL-8 from NHEK cells induced by ultraviolet rays” value [5] was “inhibited”. For the same compound, the IC50 [6] was 0.3 µM, the IC50 [7] was 1.4 µM and the “inhibitory action on the production of IL-12 (in words)” value [7, 10] was “showed an inhibitory action”. It also gave a Proliferation (NHEK cells [8]; 1 μM) of 5540 Fluorescent intensity, a Proliferation (NHEK cells [8]; 5 μM) of 5607 Fluorescent intensity and a Proliferation (NHEK cells [8]; 10 μM) of 5682 Fluorescent intensity.
